Measured values reported in PubChem BioAssay (NCI).
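Results reflect a 48-hour exposure of cells in 96-well plates to compound at five concentrations. TGI: total growth inhibition.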

Tests used:
Experiment in all cases: DTP human tumour cell line panel, 48 h
[1] = system: SK-MEL-5 melanoma
[2] = system: SNB-19 CNS
[3] = system: SW-620 colon
[4] = system: BT-549 breast
[5] = system: ACHN renal
[6] = system: SN12C renal
[7] = system: SK-OV-3 ovarian
[8] = system: TK-10 renal
[9] = system: CCRF-CEM leukemia
[10] = system: OVCAR-4 ovarian
[11] = system: PC-3 prostate
[12] = system: SK-MEL-28 melanoma
[13] = system: OVCAR-3 ovarian
[14] = system: NCI-H226 lung
[15] = system: MCF7 breast
[16] = system: M14 melanoma
[17] = system: HCC-2998 colon
[18] = system: NCI-H522 lung
[19] = system: K-562 leukemia
[20] = system: 786-0 renal
[21] = system: HCT-15 colon
[22] = system: A498 renal
[23] = system: KM12 colon
[24] = system: SF-268 CNS
[25] = system: A549 NSCLC
[26] = system: UACC-257 melanoma
[27] = system: MDA-N
[28] = system: NCI-H460 lung
[29] = system: T-47D breast
[30] = system: NCI/ADR-RES ovarian
[31] = system: MDA-MB-231 breast
[32] = system: DU-145 prostate
[33] = system: SK-MEL-2 melanoma
[34] = system: OVCAR-5 ovarian
[35] = system: NCI-H23 lung
[36] = system: OVCAR-8 ovarian
[37] = system: LOX IMVI melanoma
[38] = system: UACC-62 melanoma
[39] = system: HL-60(TB) leukemia
[40] = system: SF-295 CNS
[41] = system: HOP-92 NSCLC
[42] = system: MOLT-4 leukemia
[43] = system: MALME-3M melanoma
[44] = system: HOP-62 NSCLC
[45] = system: IGROV1 ovarian
[46] = system: COLO 205 colon
[47] = system: HCT-116 colon
[48] = system: UO-31 renal
[49] = system: EKVX NSCLC
[50] = system: SNB-75 CNS
[51] = system: RPMI-8226 leukemia
[52] = system: MDA-MB-435
[53] = system: U251 CNS
[54] = system: CAKI-1 renal
[55] = system: HT29 colon
[56] = system: RXF 393 renal
[57] = system: SF-539 CNS
[58] = system: SR leukemia

For `CC(=O)OC1COC(n2nc(N)nc2C)C(OC(C)=O)C1OC(C)=O` (configuration not stated), the TGI [1] was over 100 µM, the TGI [2] was over 100 µM and the TGI [3] was over 100 µM. It also gave a TGI [4] of over 100 µM, a TGI [5] of over 100 µM and a TGI [6] of over 100 µM. For the same molecule, the TGI [7] was over 100 µM, the TGI [8] was over 100 µM and the TGI [9] was over 100 µM. For the same molecule, the TGI [10] was over 100 µM, the TGI [11] was over 100 µM and the TGI [12] was over 100 µM. The TGI [13] was over 100 µM, the TGI [14] was over 100 µM and the TGI [15] was over 100 µM. It also gave a TGI [16] of over 100 µM, a TGI [17] of over 100 µM and a TGI [18] of over 100 µM. It also gave a TGI [19] of over 100 µM, a TGI [20] of over 100 µM and a TGI [21] of over 100 µM. It also gave a TGI [22] of over 100 µM, a TGI [23] of over 100 µM and a TGI [24] of over 100 µM. The TGI [25] was over 100 µM, the TGI [26] was over 100 µM and the TGI [27] was over 100 µM. The TGI [28] was over 100 µM, the TGI [29] was over 100 µM and the TGI [30] was over 100 µM. It also gave a TGI [31] of over 100 µM, a TGI [32] of over 100 µM and a TGI [33] of over 100 µM. For the same molecule, the TGI [34] was over 100 µM, the TGI [35] was over 100 µM and the TGI [36] was over 100 µM. For the same molecule, the TGI [37] was over 100 µM, the TGI [38] was over 100 µM and the TGI [39] was over 100 µM. The TGI [40] was over 100 µM, the TGI [41] was over 100 µM and the TGI [42] was over 100 µM. The TGI [43] was over 100 µM, the TGI [44] was over 100 µM and the TGI [45] was over 100 µM. It also gave a TGI [46] of over 100 µM, a TGI [47] of over 100 µM and a TGI [48] of over 100 µM. For the same molecule, the TGI [49] was over 100 µM, the TGI [50] was over 100 µM and the TGI [51] was over 100 µM. It also gave a TGI [52] of over 100 µM, a TGI [53] of over 100 µM and a TGI [54] of over 100 µM. The TGI [55] was over 100 µM and the TGI [56] was over 100 µM.
`c1ccc(P2c3ccccc3Nc3ccccc32)cc1` was tested, and the TGI [1] was 82.5 µM, the TGI [2] was over 100 µM and the TGI [3] was over 100 µM. For the same molecule, the TGI [5] was over 100 µM, the TGI [6] was over 100 µM and the TGI [7] was over 100 µM. For the same molecule, the TGI [8] was over 100 µM, the TGI [9] was 72 µM and the TGI [10] was over 100 µM. It also gave a TGI [11] of 87.1 µM, a TGI [12] of over 100 µM and a TGI [13] of 47.3 µM. For the same molecule, the TGI [14] was over 100 µM, the TGI [15] was over 100 µM and the TGI [16] was over 100 µM. The TGI [17] was over 100 µM, the TGI [18] was over 100 µM and the TGI [19] was over 100 µM. It also gave a TGI [57] of over 100 µM, a TGI [20] of over 100 µM and a TGI [21] of over 100 µM. The TGI [22] was 76.6 µM, the TGI [23] was over 100 µM and the TGI [24] was over 100 µM. The TGI [25] was over 100 µM, the TGI [26] was over 100 µM and the TGI [27] was over 100 µM. It also gave a TGI [28] of over 100 µM, a TGI [29] of over 100 µM and a TGI [30] of over 100 µM. For the same molecule, the TGI [31] was over 100 µM, the TGI [32] was over 100 µM and the TGI [33] was over 100 µM. For the same molecule, the TGI [34] was over 100 µM, the TGI [35] was over 100 µM and the TGI [36] was over 100 µM. It also gave a TGI [37] of over 100 µM, a TGI [38] of over 100 µM and a TGI [58] of 49.4 µM. The TGI [39] was 55.8 µM, the TGI [40] was over 100 µM and the TGI [41] was 97.4 µM. The TGI [42] was 58.7 µM, the TGI [43] was over 100 µM and the TGI [44] was over 100 µM. It also gave a TGI [45] of over 100 µM, a TGI [46] of over 100 µM and a TGI [47] of over 100 µM. For the same molecule, the TGI [48] was over 100 µM, the TGI [49] was over 100 µM and the TGI [50] was 71 µM. It also gave a TGI [52] of over 100 µM, a TGI [53] of over 100 µM and a TGI [54] of over 100 µM. The TGI [55] was over 100 µM and the TGI [56] was over 100 µM.
